The source of these data is PubChem BioAssay (NCI).

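The compound was tested at five concentrations on cells cultured in 96-well plates, with a 48-hour exposure period. GI50 marks 50% less growth. TGI denotes the concentration required for complete inhibition of growth.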 A value given as a limit tells only on which side of the number the result lay.

Assay in all cases: NCI anticancer screen, dose series, 48 h
For test [1], the system named is K-562 leukemia.
Test [2] concerns NCI-H460 lung.
Test [3] deals with IGROV1 ovarian.
Test [4] has as its system SNB-19 CNS.
Test [5] has as its system SF-295 CNS.
In test [6] the test system is ACHN renal.
Test [7] has as its system HOP-92 NSCLC.
In test [8] the test system is CCRF-CEM leukemia.
Test [9] has as its system TK-10 renal.
Test [10] relates to MCF7 breast.

For `C=CCn1c2ccccc2c2c3c(c4c5ccccc5n(CC=C)c4c21)C(=O)N(O)C3=O`, the GI50 was 3.89 µM in test [1]; 2.78 µM in test [2]; 1.4 µM in test [3]; 4.18 µM in test [4]; 2.62 µM in test [5]; 1.6 µM in test [6]. Further, the GI50 in [7] was 7.13 µM; in test [8] it was 0.971 µM; in test [9] it was 6.16 µM; in [10], 0.674 µM. In addition, the TGI in test [1] was 50 µM; in [2], 10.7 µM; in test [3], 3.8 µM; in [4] it was more than 100 µM; in test [5], 8.62 µM; in [6], 3.89 µM. The TGI in [7] is 25.5 µM; in test [8] it was 7.1 µM; in test [9] it was 35.7 µM; in [10], 29.9 µM.
For `CN1CCC2(CC1)N=C(SCC(=O)Nc1cnc3ccccc3c1)C(c1ccc(Br)cc1)=N2`, the GI50 in [1] was 1.89 µM; in test [2], 2.03 µM; in test [3], 1.77 µM; in test [4], 2.58 µM; in test [5] it was 1.79 µM; in test [6], 1.7 µM. Further, the GI50 in test [7] is 1.22 µM; in test [8] it was 2.21 µM; in [9], 1.99 µM; in test [10] it was 1.8 µM. The TGI in [1] turned out to be 5.05 µM; in [2] it was 4.28 µM; in test [3] it was 4.19 µM; in [4], 7.83 µM; in test [5], 3.93 µM; in test [6] it was 3.39 µM. Further, the TGI in test [7] was 3.35 µM; in test [8] it was 5.31 µM; in test [9], 4.49 µM; in test [10] it was 3.55 µM.
Consider `C=C1c2nc3ccccc3n2C=C(c2cccc(Cl)c2)N1Cc1ccc(OC)cc1`, for which the GI50 is 0.29 µM in [1]; 0.416 µM in [2]; 0.471 µM in test [3]; 1.04 µM in [4]; 1.42 µM in test [5]; 1.11 µM in test [6]. For the same compound, the GI50 is 2.36 µM in [7], 2.75 µM in test [8], 6.64 µM in [9] and 0.331 µM in [10]. For the same compound, the TGI in [1] is 5.25 µM; in test [2], 10.5 µM; in test [3], 15.8 µM; in test [4], more than 100 µM; in test [5], 6.91 µM; in [6], more than 100 µM. Moreover, the TGI is more than 82.4 µM in [7], more than 23.3 µM in [8], more than 64.9 µM in test [9] and more than 39.4 µM in test [10].
For `O=C(O)CCC(c1ccccc1)(c1ccccc1)c1ccccc1`, the TGI is more than 100 µM in test [1]; more than 91.2 µM in test [2]; more than 100 µM in test [3]; more than 100 µM in [4]; more than 100 µM in test [5]; more than 100 µM in [6]. For the same compound, the TGI is more than 73.9 µM in test [7], more than 100 µM in [8], more than 100 µM in [9] and more than 71 µM in test [10]. Moreover, in test [3], the GI50 is 71.2 µM.
In the case of `Cn1c(CCCC(=O)O)nc2cc(N(CCCl)CCCl)ccc21`, the GI50 in test [1] was more than 100 µM; in test [2] it was 58.7 µM; in test [3], 70 µM; in [4], 97.9 µM; in [5], more than 64.4 µM; in [6] it was more than 77.3 µM. In addition, the GI50 in test [7] was 33.5 µM; in [8], 28.1 µM; in test [9] it was more than 91.3 µM; in [10], 69.2 µM. The TGI in test [1], in test [2], in [3], in test [4], in [5] and in [6] was more than 100 µM in each case. Besides, the TGI in [7] was more than 93.3 µM; in [8] it was more than 77.7 µM; in test [9] it was more than 100 µM; in test [10] it was more than 100 µM.
Regarding `O/N=C(\CC(O)(C(F)(F)F)C(F)(F)F)c1cccs1`, the TGI in test [1], in test [2], in test [3], in test [4], in [5] and in test [6] was more than 10 µM in each case. For the same compound, the TGI in [7], in test [8], in [9] and in test [10] was more than 10 µM each time.
Turning to `C/C(=N\NC(=O)c1ccncc1)c1sc(-n2nc(-c3ccccc3)cc2-c2ccccc2)nc1C`, the TGI is more than 100 µM in [1]; more than 31.6 µM in test [2]; more than 100 µM in test [3]; more than 31.6 µM in test [4]; more than 31.6 µM in test [5]; more than 31.6 µM in [6]. Also, the TGI in test [7], in [8], in test [9] and in [10] was more than 31.6 µM throughout.
Regarding `CC1=CC(=O)N(c2cccc3c(N4C(=O)C=C(C)C4=O)cccc23)C1=O`, the GI50 was 1.9 µM in [1]; 19.5 µM in test [2]; 3.55 µM in test [3]; 53.3 µM in test [4]; more than 46.7 µM in test [5]; 2.78 µM in [6]. The GI50 in [7] was 2.5 µM; in test [8], 1.52 µM; in [9], 3.1 µM; in [10], 3.95 µM. Besides, the TGI was 9.45 µM in test [1]; 47.7 µM in test [2]; 16.2 µM in test [3]; more than 100 µM in test [4]; more than 71.5 µM in test [5]; 11 µM in test [6]. Also, the TGI in test [7] turned out to be 21 µM; in [8], 11.1 µM; in test [9] it was 7.83 µM; in test [10], 23.5 µM.
Take `CN1CCN(CCCNC(=O)c2c3c(n4ccccc24)C(=O)c2ncccc2C3=O)CC1`: the GI50 in test [1] is 1.39 µM; in [2], 0.316 µM; in [3], 1.28 µM; in [4], 1.35 µM; in [5], 1.25 µM; in test [6], 0.866 µM. Also, the GI50 is 3.03 µM in test [7], 2.16 µM in [8], 5.13 µM in test [9] and 0.612 µM in [10]. The TGI is more than 32.4 µM in test [1]; 1.75 µM in test [2]; 5.06 µM in [3]; 6.09 µM in test [4]; 13.1 µM in test [5]; 5.49 µM in test [6]. For the same compound, the TGI in test [7] was 13.4 µM; in test [8], more than 27.8 µM; in test [9], 40.9 µM; in [10] it was 2.62 µM.
Take `CCN(CC)CCNC(=O)c1cccc2c1-c1ccccc1C2=O`: the GI50 in [1], in test [2], in [3], in [4], in [5] and in test [6] was more than 100 µM in each case. In addition, the GI50 in test [7], in test [8], in test [9] and in test [10] was more than 100 µM each time. The TGI in [1], in test [2], in test [3], in [4], in test [5] and in [6] was more than 100 µM each time. Further, the TGI in test [7], in test [8], in [9] and in [10] was more than 100 µM in each case.
In the case of `COc1cc(-c2nn(-c3ccc(NC(=O)Nc4cc(C(F)(F)F)cc(C(F)(F)F)c4)cc3)cc2-c2ccncc2)ccc1Cl`, the GI50 in [1] was 2.48 µM; in [2], 1.75 µM; in test [3], 2.65 µM; in [4], 1.8 µM; in test [5], 1.1 µM; in test [6], 1.94 µM. For the same compound, the GI50 was 1.07 µM in test [7], 2.13 µM in [8], 3.13 µM in test [9] and 2.84 µM in [10]. The TGI in test [1] is more than 100 µM; in test [2], 3.88 µM; in [3], 8.25 µM; in test [4], 3.88 µM; in [5], 2.63 µM; in [6], 7.86 µM. In addition, the TGI was 4.32 µM in [7], more than 100 µM in test [8], 9.3 µM in test [9] and 8.98 µM in [10].
On to `COc1ccc(OC)c(Nc2nc3nonc3nc2Nc2cccc(Br)c2)c1`, for which the GI50 in test [1] is 0.556 µM; in [2] it was 0.504 µM; in test [3], 2.87 µM; in test [4] it was 0.692 µM; in test [5] it was 0.429 µM; in test [6], 0.927 µM. The GI50 in test [7] is 0.266 µM; in test [8] it was 0.608 µM; in test [9], 0.988 µM; in test [10], 1.63 µM. The TGI in [1] was 17.5 µM; in [2], more than 100 µM; in test [3], 42.5 µM; in test [4], 19.1 µM; in test [5] it was 3.29 µM; in test [6], 13.3 µM. Further, the TGI was 3.55 µM in test [7], 17.2 µM in [8], 16.5 µM in [9] and more than 100 µM in test [10].
